# Source: patent US8883841B2, “Oncogenic ras-specific cytotoxic compound and methods of use thereof” (The Board of Regents of the University of Texas System, priority 2005, dated 2014)
# Entries after “also recorded” stand apart in the source; their conditions may differ.
# Legend:
# [1] = system: Raf-1; assay: Western blot analysis of Raf-1 expression; type: cell-based, human; settings: listed as Oncrasin-1
# Procedure: (§1) Ras Signaling Pathway and Molecular Mechanisms of Oncrasin-induced apoptosis. To investigate molecular mechanisms of apoptosis induction by Oncrasin compounds, levels several proteins that are involved in apoptosis and/or involved in Ras signaling pathways were determined, including Bax, Bik, Bc12, Bcl-XL, Raf-1, B-Raf, Akt, Mst1 and atypical protein kinase C (aPKC) zeta and PKCiota. To study which molecules are affected by Oncrasin treatment, T29, T29Kt1 and H460 cells were treated with Oncrasin-1 at an optimal concentration, around IC60 to IC80 for T29Kt1 and H460 cells. Cell lysates were collected 12 h after the treatment and subjected to Western blot analysis.
# Suppression of Raf-1 expression by Oncrasin-1. […] To elucidate the roles of Raf-1 in Oncrasin-induced apoptosis, the inventors evaluated the expression of Raf-1 in H460 cells after treatment with different concentrations of Oncrasin-1. […] Because Raf-1 executes anti-apoptosis function via a variety of pathways. […] However, the resistance to Oncrasin-1 was more prominent in the constitutively active Raf-1-transfected cells than in cells with the wild-type Raf-1 (FIG. 10C and FIG. 10D).
# [2] = system: phosphorylated RNA polymerase II and SR proteins; assay: Western blot for phosphorylated RNA polymerase II and SR proteins; type: cell-based, human; settings: 10 μM (T29Kt1) or 1 μM (H460), 12 h
# Procedure: (§2) FIGS. 16A and 16B Effect on RNA processing machinary. (FIG. 16A) T29, T29Kt1, and H460 cells were treated with 10 μM Oncrasin-1 (T29 and T29Kt1) or 1 μM Oncrasin-1 (H460). Twelve hours later, cells were harvested for Western blot analysis for phosphorylation of RNA polymerase II and SR proteins. Cells treated with DMSO were used as control (C). (T) cells treated with Oncrasin-1. Arrows indicate reduced phosphorylation of the polymerase II (pPolII) and SR proteins (pSR) (FIG. 16B) In vitro transcription assay with HeLa cell nuclear extracts (Promoega). The assay was performed following manufacturers instructions. The concentrations used are indicated on the top of the panel. DRB was used as positive control for transcription inhibition.
# (§3) To further test the role of RNA transcription and splicing in Oncrasin-mediated antitumor activity the phosphorylation of the largest subunit of RNA polymerase II and splicing factors were analyzed. T29, T29Kt1 and H460 cells were treated with Oncrasin-1 at an optimal concentration, around IC60 to IC80 for T29Kt1 and H460 cells. Cell lysates were collected 12 h after the treatment and subjected to Western blot analysis with antibodies specific for phosphorylated RNA polymerase If (H5, Covance Research Products, Inc., Berkeley, Calif.) and SR proteins (1H4, Zymed, obtained from Invitrogen, Carlsbad, Calif.).
# [3] = system: phosphorylated PKCiota; assay: Western blot analysis of phosphorylated PKCiota; type: cell-based, human; settings: 12 h
# Procedure: as §1
# [4] = system: ASF/SF2; assay: Antibody staining, subcellular localization of ASF/SF2; type: cell-based, human
# Description: (§4) Effects on RNA spliceosome. To investigate the nature of this PKCiota aggregates in the nucleus, the effect of Oncrasin-1 on SC35, a protein required for RNA splicing and assembly of spliceosome (Fu et al., 1992; Vellard et al., 1992), and on Rad51, a homologous DNA recombinase that involves in DNA repair (Benson et al., 1994; Baumann et al., 1996) were studied. […] and DNA repairing are the two important functions executed in the nucleus. In untreated or DMSO-treated cells, SC35 was localized in nucleus as speckles, either diffusely distributed or concentrated as granule clusters (Mistele et al., 1997), whereas Rad51 was more uniformly distributed inside the nucleus. […] This aggregation of SC35 was not observed in Oncrasin resistant T29 cells upon the treatment with Oncrasin-1. […] The effects of Oncrasin on another spliceosome protein, alternative splicing factor/splicing factor 2 (ASF/SF2), was studied (Krainer et al., 1991). […] In the resistant T29 cells, however, such an aggregation is not observed (FIG. 8C).
# [5] = system: H460 cells; assay: K-Ras siRNA knockdown, Oncrasin-induced apoptosis by FACS in H460 cells; type: cell-based, human; settings: 1 μM, 12 h, compared with DMSO
# Procedure: K-Ras knockdown inhibited Oncrasin-induced apoptosis. To further study the role of K-Ras gene in Oncrasin-induced cell death, H460 cells were treated with […] of K-Ras specific siRNA or a control siRNA for 24 h. The cells were then treated with DMSO or 1 μM Oncrasin-1. After another 12 h, the cells were harvested for apoptosis detection by fluorescence-activated cytometric assay. The cell lysate was also used to detect K-Ras gene expression.
# [6] = system: SC35; assay: Antibody staining, subcellular localization of SC35 (spliceosome); type: cell-based, human
# Description: as §4
# [7] = system: RNA transcription (HeLa cell nuclear extracts); assay: In vitro transcription assay with HeLa nuclear extracts; type: biochemical
# Procedure: as §2, §3
# [8] = system: Bax, Bik, Bcl-2, Bcl-XL, Mst1, B-Raf, PKCzeta and PKCiota; assay: Western blot analysis of apoptosis/Ras signaling proteins; type: cell-based, human; settings: T29, T29Kt1 and H460 cells, 12 h
# Procedure: as §1
structure (smiles),measurement,setting,value
"O=Cc1cn(Cc2ccc(Cl)cc2)c2ccccc12 [Oncrasin K001, 1H-Indole-3-carboxaldehyde, 1-[(4-chlorophenyl)methyl]-(9CI)]",Raf-1 level in H460 cells,[1],dramatically reduces raf-1; also recorded: down regulation; also recorded: dramatically reduced Raf-1 production; also recorded: dramatic reduction in Raf-1
same,phosphorylated RNA polymerase II and certain SR proteins,[2],dramatic suppression
same,phosphorylated PKCiota in H460 and T29K cells,[3],increase in phosphorylated PKCiota
same,phosphorylated PKCiota in T29 cells,[3],but not in Oncrasin-1 resistant T29 cells
same,"ASF/SF2 localization, T29Kt1 cells",[4],induced ASF/SF2 aggregation inside nucleus
same,"ASF/SF2 aggregation, T29 cells",[4]; resistant cells,not observed
same,"apoptotic cells, control siRNA treated H460",[5],dramatic increase of apoptotic cells
same,"SC35 localization, T29Kt1 cells",[6],aggregation of SC35 into several large foci
same,"SC35 aggregation, T29 cells",[6]; Oncrasin resistant cells,not observed
same,in vitro RNA transcription,[7],does not inhibit in vitro RNA transcription directly
same,"levels of Bax, Bik, Bcl-2, Bcl-XL, Mst1, B-Raf, PKCzeta and PKCiota",[8],did not result in noticeable changes
